Assay results as given in EP0804400B1, “HYDROFORMYLATION OF A MULTI-COMPONENT FEED STREAM” (ExxonMobil Research and Engineering Company, priority 1995, dated 1996).
Read-outs that look alike come from different tables or passages of the source. Each block holds one compound with its values, some of them ahead of it.

How the values were obtained:
[1] = 0.1 MPa partial pressure, 22 °C; for Xi x 10^4: mol fraction; for Ci: molarity
Protocol: (§1) In the autoclave experiments the solvent was thoroughly degassed in the autoclave before the gas was charged without stirring. After a short temperature equilibration the pressure and temperature in the autoclave was recorded and then the solvent was stirred until no further pressure drop could be observed. From the known gas volume and pressure drop the amount of dissolved gas was calculated. In the ^1H NMR experiments either the solvent (propanal) or hexamethylbenzene served as an internal standard.

[2] = 0.1 MPa partial pressure
Protocol: as §1

[3] = cited from earlier work; for Xi x 10^4: mol fraction; for Ci: molarity
[4] = mol fraction of gas in liquid phase, solvent Tetraglyme containing 7.8 w.% PPh3, 20 °C
[5] = mol fraction, solvent Tetraglyme containing 7.8 w.% PPh3, 100 °C
[6] = molarity of gas in liquid phase, solvent Tetraglyme containing 7.8 w.% PPh3, 20 °C
[7] = molarity, solvent Tetraglyme containing 7.8 w.% PPh3, 100 °C
[8] = solvent 2-Methylbutanal, 30 °C, ref. e
[9] = solvent 2-Methylbutanal, 100 °C, ref. e
[10] = solvent Formaldehyde diethyl acetal, 30 °C, ref. g
[11] = solvent 1-Butyl acetate, 18 °C, ref. l
[12] = solvent 1-Propyl acetate, 18 °C, ref. l
[13] = solvent 2-Ethylhexanol-1, 100 °C, ref. w
[14] = solvent 2-Propyl acetate, 18 °C, ref. l
[15] = solvent Ethyl acetate, 18 °C, ref. l
[16] = solvent Ethylene glycol dimethyl (ether), 100 °C, ref. t
[17] = solvent Methyl acetate, 18 °C, ref. l
[18] = solvent Methyl butanoate, 18 °C, ref. l
[19] = solvent Methyl propanoate, 18 °C, ref. l
[20] = solvent Propionaldehyde, 100 °C, ref. k
[21] = solvent cell prints 'ether' (wrapped line), 100 °C, ref. v

Xi x 10^4 ([1]; solvent Propanal): 402.0
Ci ([1]; solvent Propanal): 557.7 mmol/L
Xi x 10^4 [2, 4]: 1224.0
Xi x 10^4 [2, 5]: 242.0
Xi x 10^4 ([2]; mol fraction, solvent Toluene, 20 °C): 246.7
Xi x 10^4 ([2]; mol fraction, solvent Toluene, 100 °C): 178.0
Ci [2, 6]: 577.0 mmol/L
Ci [2, 7]: 103.0 mmol/L
Ci ([2]; molarity, solvent Toluene, 20 °C): 220.6 mmol/L
Ci ([2]; molarity, solvent Toluene, 100 °C): 147.7 mmol/L
Compound: C#C [Acetylene]

Compound: [C-]#[O+] [Carbon monoxide]
Xi x 10^4 [3, 8]: 10.96
Xi x 10^4 [3, 9]: 13.93
Xi x 10^4 [2, 4]: 11.3
Xi x 10^4 [2, 5]: 34.6
Ci [2, 6]: 4.9 mmol/L
Ci [2, 7]: 14.2 mmol/L

Compound: CC [Ethane]
Xi x 10^4 [3, 10]: 214.00
Ci [3, 10]: 201.89 mmol/L

Compound: C=C [Ethylene]
Xi x 10^4 ([1]; solvent Propanal): 115.0
Ci ([1]; solvent Propanal): 159.6 mmol/L
Xi x 10^4 [3, 10]: 185.00
Ci [3, 10]: 174.53 mmol/L
Xi x 10^4 [2, 4]: 134.0
Xi x 10^4 [2, 5]: 76.0
Ci [2, 6]: 60.0 mmol/L
Ci [2, 7]: 32.6 mmol/L

Compound: [HH] [Hydrogen]
Xi x 10^4 ([1]; solvent d^8-Toluene): 3.5
Xi x 10^4 [3, 11]: 4.29
Xi x 10^4 [3, 12]: 4.15
Xi x 10^4 [3, 13]: 5.85
Xi x 10^4 [3, 8]: 8.55
Xi x 10^4 [3, 9]: 11.45
Xi x 10^4 [3, 14]: 4.83
Xi x 10^4 [3, 15]: 3.46
Xi x 10^4 [3, 16]: 6.20
Xi x 10^4 [3, 10]: 5.37
Xi x 10^4 [3, 17]: 2.51
Xi x 10^4 [3, 18]: 4.67
Xi x 10^4 [3, 19]: 3.77
Xi x 10^4 [3, 20]: 5.95
Xi x 10^4 [3, 21]: 6.58
Xi x 10^4 ([3]; solvent printed 2-Ethylhexanol-1 (second line), 100 °C, ref. v): 5.97
Ci [3, 11]: 3.64 mmol/L
Ci [3, 12]: 3.99 mmol/L
Ci [3, 13]: 3.45 mmol/L
Ci [3, 14]: 4.64 mmol/L
Ci [3, 15]: 3.84 mmol/L
Ci [3, 16]: 5.32 mmol/L
Ci [3, 10]: 5.07 mmol/L
Ci [3, 17]: 3.30 mmol/L
Ci [3, 18]: 4.49 mmol/L
Ci [3, 19]: 4.19 mmol/L
Ci [3, 21]: 3.89 mmol/L
Xi x 10^4 [2, 4]: 5.1
Xi x 10^4 [2, 5]: 7.3
Ci [2, 6]: 2.2 mmol/L
Ci [2, 7]: 3.0 mmol/L

Compound: C [Methane]
Xi x 10^4 [3, 10]: 37.40
Xi x 10^4 [3, 20]: 20.90
